The results in this text go back to patent US7314959B2, “Amino thiol compounds and compositions for use in conjunction with cancer therapy” (Wisconsin Alumni Research Foundation, priority 2003, dated 2008).

Test [1] has as its system Cytoxan-induced alopecia in rat pups. In words: Cytoxan-induced alopecia in rat pups. The format is in vivo. On the procedure:
Induction of alopecia by cytoxan (CTX). Lactating Sprague Dawley mother rats with rat pups were purchased from Harlan Sprague Dawley (Indianapolis, Ind.). The mother rats were given food and water ad libitum. The rats pups were tested in the model of chemotherapy-induced alopecia described by Hussein A. M. et al., Science: 249, 1564 (1990). Cytoxan (CTX), a chemotherapeutic widely used in the treatment of cancer, was used to induce alopecia in the rats. A common side effect of cytoxan treatment in patients is alopecia. Lyophilized vials of Cytoxan were obtained from Mead-Johnson. To produce CTX-induced alopecia, 11 day old rat pups, which are at the peak of coat growth, were injected i.p. with 30-35 μg of CTX/gm body weight. CTX was dissolved in water. By day 18 of life, the animals have shed virtually 100% of their coat leaving bare skin on their backs. Thus, topical application of protective drugs to the animal's back prior to the CTX insult provides a suitable test for prevention of chemotherapy-induced alopecia. A separate alopecia assay was also developed in which whole-body irradiation on day 11 of life was used as the insult. This assay is described in further detail in Example 12 which follows.
In the earliest studies with chemoprotective polyamines, the molecules were prepared in a topical delivery vehicle consisting of from 50-70% ethanol in water, depending on the solubility of the compound. The compounds in ethanol/water solution from 50-150 µl in volume were topically administered to the backs of the pups once per day before and after CTX challenge. Using a micropipette, the formulation was applied to an approximately 2 cm2 section of skin on the backs of the rat pups. Specifically, the pups were treated once daily for the 4-5 days before CTX challenge, once on the day of CTX challenge and once daily for 5 days afterwards. Control groups consisted of pups receiving only delivery vehicle. […]
In the earliest studies with chemoprotective polyamines, hair loss was evaluated using a modified alopecia-scoring index described by Chen G. et al., Int. […] In the later studies with aminothiols a simpler scoring scale was adopted in which coat density was scored on a 0-100 scale as “% of normal coat density.”
Method: To assess the ability of topical treatments to prevent Cytoxan-induced alopecia we used a published protocol (Hussein et al., Science. 249(4976):1564-6, 1990) in which 11 day old neonate rat pups (Sprague-Dawley) receive a total of 6 topical skin treatments of active agent(s) during the 5 hr before and 2 hr after a single ip dose of Cytoxan (32 ug/gm b.w.). […] The density of the rat coats in the topical treatment area was scored on day 18 of life for animals injected with Cytoxan.

In test [2] the test system is primary, human skin fibroblasts. In words: Cell cycle block in human skin fibroblasts (flow cytometry). The format is cell-based. On the procedure: (§1) Methods (Cell cycle and p21 western): The cell culture experiments were done using primary, human skin fibroblasts, one strain of which (BJ cells) was obtained from ATCC (American Type Culture Collection). […] For flow cytometry and p21 experiments, cells were plated at 0.5×10^6 cells/150 mm plate, and 24 hr later, drug molecules (4100 μM PrC-210, 600 μM cysteamine, 205 μM cysteamine analog, 0.4 μg/ml colcemid) were added to medium. […] (Cancer Research. 61(21):7754-62, 2001). As per the cited reference, cells were fixed, treated with RNAse, and stained with propidium iodide for flow cytometry, or cells were extracted, proteins electrophoresed, and probed with anti-p21 antibody (#SXM-30) for western blot analysis.
A general note: A flow cytometer gives signals particle by particle.

The subject of test [3] is p21 in human fibroblasts. Description: p21 western blot in human skin fibroblasts. The format is cell-based. The note with it: IC70 concentration of PrC-210 (4100 μM); cysteamine 600 μM; 30 hour exposure. The method, then: as §1
A general note: Immunoblotting shows a protein as a band on a membrane.

Entries after “also recorded” stand apart in the source; their conditions may differ.

`CNCC(CS)CNC` [PrC-210, 3-methylamino-2-methylaminomethyl-propane-1-thiol]: the “Alopecia Score (% Normal Coat Density in Topical Treatment Area)” value in test [1] (2000 mM PrC-210 alone, ip Cytoxan 32 ug/gm b.w., Experiment 552-555) was 9%. Also, the “effect in preventing Cytoxan-induced alopecia” value in test [1] (neonate rats, three days topical resveratrol and/or topical PrC-210) is on record as “weak effect”. For the same molecule, the “time to reversion to normal cell division after wash-out” value in test [2] (change of cell culture medium) is at most 48 h. Also, the “cell cycle block (phase)” value in test [2] (log-phase human fibroblast cultures) was “in the G1 phase of the cell cycle; also recorded: G1-specific cell cycle block; also recorded: reversible G1 cell cycle block”. The “reversibility of cell cycle block” value in test [2] (upon washout or removal of the drug) was “reversible”. In addition, in test [3], the p21 expression result is “induces expression of the cell cycle regulator, p21; also recorded: marked induction of p21 expression”.
